row,Compound,melting point
1,COc1ccc(-c2nc(Sc3ccc(C(F)(F)F)cc3)[nH]c2-c2ccc(OC)cc2)cc1,179 to 181 °C
2,O=C(Nc1ccc(CN2CCCCC2)cc1)C1=Cc2cc(-c3ccccc3)ccc2CC1,163 to 164 °C
3,CN(CC1(c2ccccc2)CC(O)=CC(=O)O1)c1ccccc1 (stereo not given),118 to 120 °C
4,Cc1nc2ccc3c(c2o1)OC(CN1CC=C(c2ccccc2)CC1)CO3 (stereo not given),170 to 173 °C
5,Cc1cccc(OC2SCC(O)C(O)C2O)n1 (stereo not given),54 °C
6,CCCc1nc2c(N)nc3ccccc3c2n1CCCC(=O)CC(C)C,136 to 138 °C
7,C[C@H](c1ccccc1)N1C(=O)c2c(F)c(F)c(F)c(F)c2C1=O,95.5 to 96 °C
8,CCOC(=O)CCC(NC(=O)c1ccc(CNCC2CNc3nc(NC(=O)C(C)(C)C)nc(O)c3C2)cc1)C(=O)OCC (stereo not given),146 to 147 °C
9,Cc1ccc(I(Cl)Cl)c([N+](=O)[O-])c1,50 to 52 °C
10,O=S(=O)(Nc1ccc2[nH]ncc2c1)C1CCNCC1,120 to 123 °C
11,O=C(O)[C@H]1C[C@@H](CP(=O)(O)O)c2ccccc2N1 (relative stereo),171 to 173 °C
12,CON=C(C)CC(C)(C)Cn1cnc2c(N)nc3ccccc3c21,148 to 150 °C
13,CCOC(=O)CNC(=O)c1nnc2ccc(Cl)nn12,133 to 134 °C
14,CC(C)C[C@H](NC(=O)N1CCCCCC1)C(=O)O,88 to 89 °C
15,COc1ccc(S(=O)(=O)C(C/C=C(\C)CCC=C(C)C)(Cc2ccc(OCCN3CCOCC3)cc2)C(=O)NO)cc1 (stereo not given),61 °C
16,CCCN/C(C)=C(/C#N)C(N)=S,149 to 151 °C
17,O=C(C1CCN(S(=O)(=O)c2ccc(Cl)cc2)CC1)N1CCN(c2ccncn2)CC1,125 to 128 °C
18,CCN(CC)Cc1nc2cc(OC)c(OC)cc2c(-c2ccc(OC)c(OC)c2)c1C(=O)CC(C)C,153 to 154 °C
19,COc1ccc(N2CCN(c3ccc(Nc4nnc(C)s4)cc3)CC2)cc1,277 °C
20,NC(=O)c1c(Cl)cc(Cl)c(C(=O)O)c1Cl,280 °C
21,CCOC(=O)c1c(C)ccc(Cc2c[nH]cn2)c1O,101 to 103 °C
22,CCc1c(Oc2ncc(C(F)(F)F)cc2Cl)nn(C(=O)NC)c1C,84 to 86 °C
23,CCOC(=O)Cn1c(=O)c2cc(F)c(-c3ncc[nH]3)cc2n(Cc2ccc(Cl)cc2Cl)c1=O,192 to 193 °C
24,CC1CC(=O)NN=C1c1ccc(NC2=NCCN2)c(Br)c1 (stereo not given),265 to 267 °C
25,CCC(C)Oc1nc(N)nc2c1ncn2C1C=CC(CO)C1 (stereo not given),159 to 161 °C
26,O=Cc1ncn2cc(Br)sc12,200 to 201 °C
27,CCCCCCOc1ccc2[nH]c(C)c(CC(=O)O)c2c1,65 to 67 °C

row,Compound,melting point
1,CCCCCc1cc2c(nc(O)n2CCCCS(C)(=O)=O)c(N)n1,188 to 189 °C
2,CCc1nnc2c(NC3CC3)nc3ccccc3n12,190 to 192 °C
3,O=C(c1cc(N2CCCCC2)ccn1)N(O)CCCc1ccccc1,125 to 130 °C
4,O=C1CCSC(=S)N1c1ccccn1,157 °C
5,COc1ccccc1-c1ccc(C)n1CC[C@H]1C[C@H](O)CC(=O)O1 (relative stereo),112 to 114 °C
6,CCCCc1nc2c(N)nc3c(c2n1CCNC(=O)c1cc(C(C)(C)C)c(O)c(C(C)(C)C)c1)NCCC3,208 to 210 °C
7,C#CCn1nc(-c2ccc(S(C)(=O)=O)cc2)c(-c2ccc(F)cc2)c1C(F)(F)F,158 to 160 °C
8,Cc1cc(C#N)cc(C(=O)Nc2cccc(C(F)(F)F)c2)n1,167 °C
9,Cc1nc2c(N[C@@H]3c4ccccc4C[C@H]3O)cc(C(=O)O)cn2c1C (relative stereo),246 to 249 °C
10,N#Cc1cccc(C2=Nc3ccc(C#CC4(O)CCCCC4)cc3NC(=O)C2)c1,196 °C
11,CNC(=O)c1ccccc1Nc1nc(Nc2ccc3c(c2)CCN(C[C@@H](O)C(F)(F)F)CC3)ncc1Cl,188 to 191 °C
12,COCCC1CCCCCc2c1oc(=O)c(C(c1ccccc1)C1CC1)c2O (stereo not given),78 to 80 °C
13,OCc1nc2n(n1)-c1ccccc1N(c1cccc(C(F)(F)F)c1)C2,168 to 171 °C
14,COc1cc2c(cc1OC)CN(CC(O)CN1CCC(c3noc4cc(F)ccc34)CC1)CC2 (stereo not given),153 to 154 °C
15,C[C@@H]1CN(c2ccc(S(=O)(=O)c3ccccc3)c3ccccc23)C[C@H](C)N1,168 to 169 °C
16,COc1cccc2ncoc12,28 to 31 °C
17,CC(=O)NCCC1=CCc2ccc3c(c21)CCO3,153 to 155 °C
18,O=C1CCNc2cc(Cl)c(F)cc21,192 to 194 °C
19,Nc1ccccc1C(=O)NC1CCCCC1,152 to 154 °C
20,CC1(C)Sc2cc(Cl)ccc2C2=NN(C(=O)Nc3ccc(C(F)(F)F)cc3)CC21 (stereo not given),200 to 202 °C
21,CCOC(=O)c1cc([N+](=O)[O-])ccc1F,53 to 54 °C
22,COC(=O)c1ccccc1-c1ccc(CBr)cc1,51 to 53 °C
23,CC1(C)CN(C(=N)NC=C(C#N)C(=O)N(CC2CC2)c2cccc(C(F)(F)F)c2)C(=O)N1,121 to 122 °C
24,O=C(Nc1ccn[nH]1)c1cccnc1Cl,163 °C
25,Fc1cccc(Cc2cncnc2N2CCCC2)c1,51 to 54 °C
26,c1ccc(-n2c(Cn3ccnc3)nc3cccnc32)cc1,146 to 148 °C
27,CC(C)(C)c1nc(Nc2nc(C(=O)O)cs2)nc(C(C)(C)C)c1O,251 to 253 °C

row,Compound,melting point
1,Clc1ccc2c(c1)CCn1ccnc1C2=C1CCNCC1,197 °C
2,O=C1c2ccccc2SC12CC2,70 °C
3,CC(=O)c1c(O)c(=O)[nH]c2cc(Cl)ccc2c1=O,254 to 256 °C
4,Cc1nnc(-c2ccc3occ(-c4ccc(CO)cc4)c3c2)o1,157 to 158 °C
5,CC(=O)Nc1cc2c(cc1C#N)C(Nc1ccc(C(=O)OC(C)(C)C)cc1)CC2 (stereo not given),173 to 174 °C
6,CCCCOC(=O)C(C#N)=C1Nc2ccccc2O1,116 to 119 °C
7,O=C(CNC(=O)c1ccc([N+](=O)[O-])c(I)c1)OCC(Cl)(Cl)Cl,98 to 100 °C
8,CCOC(=O)c1sc(SC)c2c1CCc1nc(C)oc1-2,131 to 132 °C
9,CC(=O)c1ccc(-c2nc(=O)c3ccccc3s2)nc1,276 to 277 °C
10,CC1COC2(c3ccccc3)c3cc(Cl)ccc3NC(=O)CN12 (stereo not given),84 to 98 °C
11,O=[N+]([O-])c1c(O)c(O)cc2c1C(=NO)CC2,200 to 201 °C
12,CCOC(=O)C1=C(C)NC(C)=C(C(=O)OCC)C1c1ccccc1/C=C(\C)C(=O)O,205 to 207 °C
13,O=C(NCCC1CCCCC1)c1cc(-c2ncc(Cl)cc2C(=O)O)ccc1Cl,208 to 211 °C
14,COc1cc(-c2cnc3[nH]cc(C(=O)C4(C)CCCC4)c3n2)cc(OC)c1OC,244 to 246 °C
15,CC(C)c1nc(-c2ccc(F)cc2)c(C=O)c(C(C)C)c1CO,147 °C
16,CCCCNC(=O)NCCOc1ccc2c(ccn2Cc2ccc(Cl)cc2)c1,163 to 164 °C
17,C[C@H](NC1=NS(=O)(=O)c2sc(Cl)cc2N1)c1ccccc1,195 to 204 °C
18,Cc1cc2nc3c(nc2cc1[N+](=O)[O-])SC(=C(C#N)C#N)S3,283 to 284 °C
19,O=C(O)[C@@H](Cl)[C@H](O)c1ccccc1,98 to 100 °C
20,CCc1nc(N)nc(N)c1N1CCN(c2ccc(C#N)cc2)CC1,> 310 °C
21,O=Cc1cc2cc3c(cc2nc1Cl)OCCO3,222 to 224 °C
22,CC(C)CNC(=S)Nc1cc(Cl)cc(Cl)c1,144 °C
23,CCOc1cc2c(c(OC(C)=O)c1OCC)=NC(=O)C(=O)N=2,321 to 322 °C
24,O=[N+]([O-])c1ccc2[nH]c(/C=C/c3ccoc3)nc2c1,230 to 233 °C
25,CC1(CCC#N)CCC2OCCOC2CC1=O (stereo not given),58 to 60 °C
26,COc1ccc(Br)c(-n2c(=O)[nH]c(=O)n(C)c2=O)c1,185 to 187 °C
27,COc1ccnc(CCc2nc3cc(-c4ccsc4)cnc3[nH]2)c1,154 to 155 °C

row,Compound,melting point
1,COc1ccc(CSCC(=O)NO)cc1OC,78 °C
2,Cc1ccc(-n2cccc2C=O)c(Cl)c1,111 to 112 °C
3,CC(=O)OCC1OC(n2cc(C)c(=S)[nH]c2=S)CC1F (stereo not given),113 to 114 °C
4,COc1ccc2c(c1)Cc1ccccc1C(=O)C2,105 to 106 °C
5,CNC(=O)ON=C(SCC(N)=O)C(C)(C)[N+](=O)[O-],125 to 127 °C
6,O=C(O)C(O)=CC(=O)c1ccc(Cl)c(Cl)c1,180 to 181 °C
7,CCCCN=C(CS(C)=O)c1ccccc1O (stereo not given),128 to 129 °C
8,COc1ncccc1-c1ccc(OC2SCC(OC(C)=O)C(OC(C)=O)C2OC(C)=O)c(Cl)n1 (stereo not given),221 °C
9,CC(=O)OCc1cncc(COc2cc3c(=O)c(Cc4cccnc4)cn4c5ccc(Br)cc5c(c2)c34)c1,83.5 to 84.5 °C
10,Cc1ccc(C(=O)NN=C(N)CS(=O)(=O)c2ccccc2)o1,219 to 220 °C
11,CCC(C)(COc1nn2nc(C)nc2cc1C)CS(N)(=O)=O (stereo not given),194 to 195 °C
12,CCOP(=O)(OCC)c1cc2cc([N+](=O)[O-])c(Cl)cc2[nH]c1=O,258 to 262 °C
13,C=CCCC(C#N)(C#N)Cc1ccc(OCC(F)(F)F)cc1,58 °C
14,CC1=C(C#N)C(c2cccc([N+](=O)[O-])c2)C(c2nc(CCl)no2)=C(C)N1 (stereo not given),204 to 206 °C
15,Cc1c(C)c2c(c(C)c1OCc1ccc(S(C)(=O)=O)cc1)C(c1ccc(C(C)C)cc1)C(C)(C)O2 (stereo not given),161 to 162 °C
16,CCC(C)C(C(=O)O)N1C(=O)C2C3C=CC(C3)C2C1=O (stereo not given),109 °C
17,Cc1ccc(C(=O)O)c(Nc2cc(C)nn2C)c1,188 to 192 °C
18,O=S(=O)(c1ccccc1)n1cc(I)c2c(OC3CCCCC3)ccnc21,112 to 114 °C
19,CC(=O)Nc1ccc(P(=O)(O)O)cc1,228 °C
20,CC(=O)C(C)OC(=O)CC[C@H]1NC(=O)[C@@H]1N1C(=O)c2ccccc2C1=O (stereo not given in full),135 to 145 °C
21,COCCn1cc(C(=O)O)c2c(C(=O)N3CCOCC3)cccc21,201 to 203 °C
22,O=C(COc1ncccn1)NC1CCN(Cc2ccc(Cl)c(Cl)c2)CC1,120 to 122 °C
23,CCCCCCCCCCCCCCCCCCN(CCCCCCCCCCCCCCCCCC)CCCN(CC(=O)OC)CC(=O)OC,75 to 77 °C
24,CCOC(=O)c1ccc(NC(=O)Nc2nnc(-c3cc(Cl)cc(Cl)c3O)s2)cc1,> 300 °C

# Source: a melting point compilation (Tetko et al.; mined from patent text by program, amines drawn as free bases though some values may be those of a salt)
